Measurements from US6830765B2, “Green tea extract for treating obesity” (priority 1999, dated 2004).

Key:
rat brown adipose tissue = assay: Ex vivo model of thermogenesis: oxygen consumption of a sample of rat brown adipose tissue; format: cell-based
Experimental: These studies were carried out on an ex vivo pharmacological model of thermogenesis. The principle is to measure the oxygen consumption of a sample of rat brown adipose tissue; the oxygen consumption is proportional to the thermogenesis induced in the adipose tissue by the various test substances.

thermogenesis = assay: Increase in thermogenesis in man (total expenditure of energy over 24 h, 10 volunteers); format: in vivo
Experimental: The increase in thermogenesis in man by an extract of green tea according to the invention was also determined. A similar study was carried out on 10 volunteers receiving at each meal either 500 mg of an extract of green tea (corresponding to 125 mg of catechols and 50 mg of caffeine), or 50 mg of caffeine, or a placebo.

Row | Compound | Increase in oxygen consumption (rat brown adipose tissue; Caffeine 0, EGCG 100 μM) | Increase in oxygen consumption (rat brown adipose tissue; Caffeine 0, EGCG 200 μM) | total expenditure of energy over 24 h (thermogenesis; 50 mg of caffeine at each meal, placebo 9538 kJ) [kJ] | effect on thermogenesis, result in words (thermogenesis; caffeine alone at the same dose as provided by the extract) | Increase in oxygen consumption (rat brown adipose tissue; Caffeine 100 μM, EGCG 0)
1 | O=C(O[C@@H]1Cc2c(O)cc(O)cc2O[C@@H]1c1cc(O)c(O)c(O)c1)c1cc(O)c(O)c(O)c1 [EGCG, epigallocatechol gallate] | no | +40% | – | – | –
2 | Cn1c(=O)c2c(ncn2C)n(C)c1=O [caffeine] | – | – | 9599 | does not increase thermogenesis | no
